Experimental data: patent US8618068B2, “Methods and low dose regimens for treating red blood cell disorders” (priority 2009, dated 2013)

Columns and labels:
[1] = Dose range-finding embryo/fetal developmental toxicity in rats; assay type: in vivo
Description: DMB was administered orally by gavage to 4 groups of 8 bred female Sprague Dawley rats once daily from gestation Days 6 through 17, at dosage levels of 50, 150, 500 and 1000 mg/kg/day. […] On gestation Day 20, a laparohysterectomy was performed on each surviving female.

[2] = Immunotoxicology weight-of-evidence analysis, repeat dose rat study; assay type: in vivo, Sprague Dawley rat
Description: The immunotoxicological potential of DMB has been evaluated by a weight-of-evidence analysis of the data generated in the repeat dose Sprague Dawley rat and Beagle dog studies. In both studies, there were no effects of treatment on WBC levels or lymph node histopathology, which are predictive of potential immunotoxicity.

[3] = Phase 1 repeat-dose clinical study, safety; assay type: in vivo, human
Description: DMB was evaluated in a phase 1, placebo-controlled, randomized, repeat dose clinical study that evaluated tolerability, safety, and pharmacokinetics in healthy volunteers. A total of 41 subjects (31 receiving active drug and 10 receiving placebo) completed 14 consecutive days of study medication at daily dose levels of 5, 10 or 15 mg/kg (10 subjects received placebo). Given the importance of iron in red blood cell production, and the requirement for iron supplementation for induction of HbF with other erythropoietic agents, subjects at all 3 dose levels received oral ferrous gluconate on the study medication days. DMB was administered with food to all but one group (5 mg/kg, cohort 1). Subjects were admitted and observed for 24 hours following initial dosing. Thereafter, the study drug was taken once per day at home, except for the last study day. The subjects were monitored weekly for 6 weeks. Thirty-seven subjects completed the study and 4 subjects dropped out due to conflicts. Safety and PK data are available on these subjects.
The treatment groups included: Cohort 1: 5 mg/kg fasting, 6 active, 2 placebo; Cohort 2: 5 mg/kg with food, 7 active, 2 placebo (3 drop outs); Cohort 3: 5 mg/kg with food and iron supplements, 6 active, 2 placebo (1 drop out); Cohort 4: 10 mg/kg with food and iron supplements, 6 active, 2 placebo; and Cohort 5: 15 mg/kg with food and iron supplements, 6 active, 2 placebo. Subjects in Cohorts 3, 4, and 5 received a single daily dose of ferrous gluconate (325 mg). The iron supplement was administered to evaluate study medication tolerability when taken with iron. No subjects discontinued due to AEs or safety concerns. Fewer subjects reported an event in the highest dose cohort following eating a meal ([…]) than were reported in the lower dose cohorts ([…], 5 and 10 mg/kg).
The AEs observed in this study are described in Table 11. All events were assessed as mild by the Principal Investigator and resolved either on study or post study. No SAEs were reported. Two subjects had transient lymphadenopathy that were not considered related to study medication. No laboratory abnormalities of significance were noted except one patient developed a urinary tract infection. No clinically significant ECG abnormalities were noted.

absolute reticulocytes = assay: Phase 1 repeat-dose clinical study, absolute reticulocytes; assay type: in vivo, human
Description: Mean absolute reticulocytes (10^9 cells/L) in the placebo group at baseline and Day 27 were 51+/−12 and 62+/−20, respectively, which was not statistically significant (p=0.19). Mean absolute reticulocytes increased on average from 50% to 60% above the mean baseline values in the subjects who received study medication. For example, at baseline in Cohort 1 (5 mg/kg, fasted) mean absolute reticulocytes were 50+/−12 and mean peak reticulocytes were 81+/−24, (p=0.02); in Cohort 4 (10 mg/kg) mean baseline reticulocytes were 58+/−8 and mean peak reticulocytes were 84+/−14, (p=0.003), and in Cohort 5 (15 mg/kg; fed), the mean baseline was 46+/−11 and mean peak level was 72+/−11, a 50% increase (p=0.001).

fetal hemoglobin (HbF) = assay: Phase 2 trial in thalassemia intermedia patients, HbF and total hemoglobin; assay type: in vivo, human
Description: A randomized, doubled blind, placebo-controlled, multiple ascending dose Phase I/II trial was conducted in 21 adult patients with beta thalassemia intermedia, including 14 patients with HbE/β^0 thalassemia from Thailand and 7 patients with β^+/β^0 thalassemia (including 12 different beta globin gene mutations). Study medication was taken as a single daily dose of DMB for 8 weeks followed minimally by a 4 week break and follow-up period. Four ascending dose levels (10, 20, 30, and 40 mg/kg/day) were sequentially evaluated in 4 dose level cohorts after the preceding dose and schedule were determined safe by an independent and unblinded Safety Monitoring Committee.
All treatment groups had two placebo patients; placebo patients in the first dose group were randomized to treatment in the second dose group. Ten patients in Thailand (all HbE type) were treated with 10 mg/kg (8 active/2 placebo) followed by eight patients in Thailand who were treated followed by 30 mg/kg (6 active/2 placebo). Eleven patients (4 That, 7 Lebanese) were treated with 20 mg/kg followed by 40 mg/kg (9 active [6 Lebanese/3 That]/2 placebo). Patients ranged in age from 17 to 49 with a median age of 31 and were comprised for 16 females and 5 males.
(§1) Patients were monitored every 2 weeks for laboratory studies, physical examinations, and adverse events. Further, patients were followed for hematologic parameters primarily focusing on hemoglobin and fetal hemoglobin (HbF). In addition, pharmacokinetic samples were obtained on Day 0 and 13, at pre-dose and 2, 4, 6, 8, 12, and 24 hours post-dosing. Hemoglobin was measured at each site using standard hematology equipment. HbF was measured using Varian HPLC. […] Adverse events in treated subjects included headache, upper respiratory infection, pyrexia, fatigue, nausea, and dizziness, but the rates of such events were not markedly different from those observed in the placebo-treated subjects.

clinical = conditions: human, in vivo
Description: as §1
A noncompartmental PK analysis was conducted using steady state concentration-time data for Day 13.

[4] = Half-life of DMB (summary statement); conditions: in vivo

CCC(C)(C)C(=O)[O-].[Na+] [DMB, Sodium 2,2-dimethylbutyrate]
maternal or fetal effects ([1]; 50 mg/kg/day): No maternal or fetal effects
postimplantation loss ([1]; 150 mg/kg/day): Increased postimplantation loss
acceptability of dosage for a definitive embryo/fetal developmental toxicity study ([1]; rat, in vivo): considered unacceptable
effects on WBC levels or lymph node histopathology [2]: no effects
SAEs reported ([3]; 5, 10, 15 mg/kg for 14 days): No SAEs
dose limiting toxicity ([3]; 5, 10, 15 mg/kg for 14 days): No dose limiting toxicity
tolerability ([3]; 5 to 15 mg/kg/day for 14 consecutive days): well-tolerated
Subject incidence of Abdominal pain ([3]; DMB N = 31): 3%
Subject incidence of Contusion of elbow ([3]; DMB N = 31): 3%
Subject incidence of Diarrhea ([3]; DMB N = 31): 6%
Subject incidence of Fatigue ([3]; DMB N = 31): 3%
Subject incidence of Flatulence ([3]; DMB N = 31): 6%
Subject incidence of Gastritis ([3]; DMB N = 31): 3%
Subject incidence of Gastroenteritis ([3]; DMB N = 31): 3%
Subject incidence of Headache ([3]; DMB N = 31): 23%
Subject incidence of Light-headedness ([3]; DMB N = 31): 3%
Subject incidence of Lymphadenopathy, inguinal ([3]; DMB N = 31): 3%
Subject incidence of Menstrual cramps ([3]; DMB N = 31): 6%
Subject incidence of Nausea ([3]; DMB N = 31): 6%
Subject incidence of Pharyngeal erythema ([3]; DMB N = 31): 3%
Subject incidence of Pharyngitis ([3]; DMB N = 31): 6%
Subject incidence of Pregnancy ([3]; DMB N = 31): 3%
Subject incidence of Reflux esophagitis ([3]; DMB N = 31): 3%
Subject incidence of Spasm, esophageal ([3]; DMB N = 31): 3%
Subject incidence of Sunburn ([3]; DMB N = 31): 3%
Subject incidence of Upper respiratory infection ([3]; DMB N = 31): 3%
Subject incidence of Urinary tract infection ([3]; DMB N = 31): 3%
Subject incidence of Vaginal candidiasis ([3]; DMB N = 31): 3%
mean peak reticulocytes (absolute reticulocytes; Cohort 1 (5 mg/kg, fasted), baseline 50+/−12, p=0.02): 81+/−24 10^9 cells/L
mean peak reticulocytes (absolute reticulocytes; Cohort 4 (10 mg/kg), baseline 58+/−8, p=0.003): 84+/−14 10^9 cells/L
increase of reticulocytes, baseline to peak (absolute reticulocytes; Cohort 5 (15 mg/kg; fed)): 50%
mean peak reticulocytes (absolute reticulocytes; Cohort 5 (15 mg/kg; fed), baseline 46+/−11, p=0.001): 72+/−11 10^9 cells/L
patients in whom total hemoglobin increased (fetal hemoglobin (HbF); 20 mg/kg group): 2 out of 9
dose level with the largest increase in HbF (fetal hemoglobin (HbF); Day 55): 20 mg/kg
change in HbF at Day 55 (fetal hemoglobin (HbF); all 4 DMB dose groups, compared to minimal change in placebo): median increases
Median change from baseline to Day 55 in total hemoglobin (fetal hemoglobin (HbF); all groups including placebo): decreases
Tmax (clinical): 2.5 to 3.1 h
half-life (clinical; 10 mg/kg): 12.1 h
half-life (clinical; 40 mg/kg): 10.3 h
half-life [4]: 9 to 11 h
